Measurements: US7897401B2, “Control of apoptosis by controlling the propensity of ceramide channel formation” (University of Maryland, College Park, priority 2005, dated 2011)
pIC50: −log10 of the molar value. One block for each compound: values may come before it.

Experiments:
Type in all cases: biochemical
[1] = Ability of sphingolipids to form channels in membranes
Source text: The present invention establishes that sphingosine is capable of directly disassembling ceramide channels, thus proving the existence of this novel anti-apoptotic regulatory step. The ability of sphingosine, sphingosine-1-phosphate ([…]) and ceramide-1-phosphate the ability to form channels was investigated.

yeast mitochondria = test: Ceramide-induced permeabilization in yeast mitochondria
mammalian MOM = test: Ceramide-induced permeabilization of mammalian MOM; settings: C16-ceramide; read-out: IC50 for inhibition of C16-ceramide-induced permeabilization of mammalian MOM
[2] = test system: ceramide channels in the MOM of rat liver mitochondria; test: Complex IV accessibility assay (cytochrome c oxidation), isolated rat liver mitochondria
Source text: The amount of ceramide that needs to be added to mitochondria to achieve permeabilization of the MOM to proteins is high compared to physiological levels. However, it is not the absolute ceramide concentration in solution that is important, but rather the concentration of ceramide in the membrane. In addition, only a small percentage of the ceramide added to the solution actually inserts into the membrane. This issue was directly addressed by using radiolabeled ceramide and simultaneously measuring how much ceramide inserts into rat liver mitochondria and how much permeabilization is achieved in the MOM by measuring the accessibility of exogenously added cytochrome c. […] Levels measured in mitochondria in the early stages of apoptosis are 4 pmoles per nmole. Thus, the results are well within the physiological range. Note that after correcting for the membrane partitioning, long and short-chain ceramide have equal potency as expected from the model of the ceramide channel.
(§1) The ability of the naturally-occurring C16-ceramide to form channels in the mitochondrial outer membranes of isolated yeast mitochondria was assessed via the complex IV accessibility assay. This assay measures the bidirectional flux of cytochrome c across the mitochondrial outer membrane (MOM) by monitoring its oxidation by complex IV of the mitochondrial inner membrane electron transport chain. The initial rate of cytochrome c oxidation when expressed as a percent of the rate measured in mitochondria with damaged outer membranes is a good measure of the permeability of the MOM to proapoptotic proteins. This method has an advantage over simply looking for the release of cytochrome c because both channel prevention and reversal by a potential inhibitor can be evaluated.
Thus, mitochondria are isolated from wild type yeast and yeast strains expressing either human Bcl-2 or Bcl-xL according to previously published methods (Lee, A. et al. (1998) “THE ROLE OF YEAST VDAC GENES ON THE PERMEABILITY OF THE MITOCHONDRIAL OUTER MEMBRANE,” J. Membr. Biol. 161:173-181). Isolated yeast mitochondria are incubated with the naturally occurring C16-ceramide and its ability to form channels is evaluated according to the complex IV accessibility assay (Siskind, L. J. et al. (2002) “CERAMIDE CHANNELS INCREASE THE PERMEABILITY OF THE MITOCHONDRIAL OUTER MEMBRANE To SMALL PROTEINS,” J. Biol. Chem. 277:26796-26803). This assay measures the CN-sensitive oxidation of exogenously-added reduced cytochrome c by cytochrome c oxidase of the inner membrane. […] Mitochondria are incubated with test agents (e.g., C16-ceramide) for a predetermined period of time (e.g., 5-20 minutes), reduced cytochrome c is added and the absorbance is monitored at 550 nm. […]

[3] = test system: ceramide channel in planar phospholipid membrane; test: Electrophysiological recordings on planar phospholipid membranes; settings: 0.15 μM protein added while stirring, voltage clamp, FIG. 16
Source text: Planar phospholipid membranes were produced by the monolayer method (Montal, M. et al. (1972) “FORMATION OF BIMOLECULAR MEMBRANES FROM LIPID MONOLAYERs AND A STUDY OF THEIR ELECTRICAL PROPERTIES,” Proc. Natl. Acad. Sci. USA 69:3561-3566) as modified by Colombini, M. (1987) (“CHARACTERIZATION OF CHANNELS ISOLATED FROM PLANT MITOCHONDRIA,” Methods Enzymol. 148:465-475), across a 100-μm-diameter hole in a Saran partition. Monolayers were produced using a solution of 0.5% w/v asolectin, 0.5% w/v DiPhyPC, 0.1% w/v cholesterol in hexane. This technique produces solvent-free phospholipid membranes whose lipid composition (focusing on the polar head-groups) is similar to that found in the mitochondrial outer membrane. It differs from the natural membrane in lacking proteins.
The aqueous solutions contained 1 mM MgCl2, and 5 mM Pipes pH 6.8 with KCl varying from 0.10 M to 1.0 M. The KCl concentration on one side of the membrane, referred to as the “trans” side, was always 0.10 M, whereas the other side (the “cis” side) was adjusted as needed. The transmembrane voltage was electronically clamped and the current through the membrane was recorded. The voltage values indicated are the voltage differences across the membrane cis side minus trans side.
C2-ceramide was stirred into the aqueous solution on each side of the membrane from a solution in DMSO, generally 0.5 mg/ml. Single or multiple additions, typically […] each, yielding a final concentration of 2 μg/ml, were made to achieve a desired level of conductance. Sphingosine additions of 5 μl were made from a solution in DMSO (4 mg/mL) yielding a final concentration of 4 μg/mL.
The observation that anti-apoptotic Bcl-2 family proteins inhibit ceramide channel formation in isolated yeast and rat liver mitochondria correlates with previous reports showing inhibition of ceramide-induced apoptosis in whole cells by these proteins. Thus the results directly tie ceramide-induced mitochondrial-mediated apoptosis with the Bcl-2 family of proteins known to regulate these events. To address whether the antiapoptotic proteins act directly on ceramide channels or work by an indirect action, their affects on ceramide channels in solvent-free planar phospholipid membranes was tested. This is a defined system free of other proteins. When C16-ceramide is added to the aqueous solution bathing one side of a planar phospholipid membrane, it results in discontinuous increases in conductance under voltage-clamp conditions, the defining characteristic of channel formation in membranes. These conductance increments are the enlargement of one ceramide channel rather than the formation of multiple ceramide channels in parallel (Siskind, L. J. et al. (2003) “ENLARGEMENT AND CONTRACTURE OF C2-CERAMIDE CHANNELS,” Biophys. J. 85:1560-1575). […]

[4] = test system: C16-ceramide channels in the MOM of yeast mitochondria; test: Complex IV accessibility assay, isolated yeast mitochondria
Protocol: as §1
Thus, mitochondria are isolated from wild type yeast and yeast strains expressing either human Bcl-2 or Bcl-xL according to previously published methods (Lee, A. et al. (1998) “THE ROLE OF YEAST VDAC GENES ON THE PERMEABILITY OF THE MITOCHONDRIAL OUTER MEMBRANE,” J. Membr. Biol. 161:173-181). Isolated yeast mitochondria are incubated with the naturally occurring C16-ceramide and its ability to form channels is evaluated according to the complex IV accessibility assay (Siskind, L. J. et al. (2002) “CERAMIDE CHANNELS INCREASE THE PERMEABILITY OF THE MITOCHONDRIAL OUTER MEMBRANE To SMALL PROTEINS,” J. Biol. Chem. 277:26796-26803). This assay measures the CN-sensitive oxidation of exogenously-added reduced cytochrome c by cytochrome c oxidase of the inner membrane. It measures the permeability of the mitochondrial outer membrane (MOM) to cytochrome c. […] Mitochondria are incubated with test agents (e.g., C16-ceramide) for a predetermined period of time (e.g., 5-20 minutes), reduced cytochrome c is added and the absorbance is monitored at 550 nm. […]
The complex IV accessibility measures of the permeability of the MOM. The initial rate is expressed as a percentage of the rate of cytochrome c oxidation in mitochondria whose outer membranes are ruptured by hypotonic shock. […]

[5] = test system: ceramide channels in the mitochondrial outer membrane (MOM); test: Adenylate kinase release assay in isolated rat liver mitochondria; settings: for effect of preincubation on C16-ceramide permeabilization of the MOM and adenylate kinase release: 5 min preincubation, C16-ceramide 40 μg/mL, 10 min, low concentration potentiates, higher inhibits
Protocol: The preparation yielded a mitochondrial suspension containing 10 mg of protein per mL. […] The mitochondria were then pelleted at 14,000 g for 5 min at 4° C. and the supernatant was kept on ice until assayed. […] The enzymes were added to the rest of the reaction mixture 1 min before the addition of the mitochondrial supernatant to allow a trace of ATP to be consumed. The activity of adenylate kinase was detected as an increase in absorbance at 340 nm. Since the activity of the kinase decays with time, even on ice, experiments were performed in sets and the activity of the first supernatant was assayed again at the end of the set. The values were fitted to a first order decay and all values within the set were corrected for the decay of the activity, based on the time delay before assay.
To determine the effect of sphingosine pretreatment on ceramide permeabilization of the mitochondrial outer membrane, mitochondria were incubated at room temperature in the presence of varying concentrations of sphingosine for […] before addition of ceramide and incubation for 10 min. Untreated mitochondria and mitochondria hypotonically lysed (20 μl into 1.2 ml water) served as negative and positive controls, respectively.
Experiments with C16-ceramide were performed in a similar way except as follows. The mitochondria were suspended in the above medium except that the 1 mM Tris buffer was replaced by 5 mM HEPES. To 1.0 mL of this medium at room temperature (RT) was added 17 μL of mitochondrial suspension that had been kept on ice at a concentration of 4 mg/mL. The final mitochondrial protein concentration during the experiment was 80 μg/mL. In the case of shocked mitochondria, the 1.0 mL of medium was replaced by water. Sphingosine was added, where appropriate, from a 0.25 mg/mL solution in DMSO. Typically 4-7 incubations were run in parallel. All samples were incubated for 5 min at RT. Then some samples received 0.4 mL of fatty acid depleted bovine serum albumin (BSA), 25 mg/mL, followed immediately by 20 μL of C16-ceramide dissolved in isopropanol at 2 mg/mL. After a 10-min incubation at RT, 10 μL of 4 mM PMSF was added followed by centrifugation. In these experiments 0.3 mL of mitochondrial supernatant was added to the adenylate kinase reaction mixture.

[6] = test system: ceramide channels in mitochondrial outer membranes; test: Dihydroceramide inhibition of ceramide channel formation in mitochondrial outer membranes (rate of oxidation of exogenously-added cytochrome c)
Source text: The permeability was monitored by recording the rate of oxidation of exogenously-added cytochrome c. Ceramide (C2) was present at all data points except for the highest amount of dihydroceramide (DHC2) added (29 nmol).

Compound: ceramide-1-phosphate [C-1-P]
ability to form channels [1]: without reproducible effect

pIC50 (mammalian MOM): 3.64
Compound: CCCCOc1cc(C(=O)NCCN(CC)CC)c2ccccc2n1 [dibucaine]
effect on ceramide C2-induced permeabilization (yeast mitochondria): inhibited
effect on ceramide C16-induced permeabilization (yeast mitochondria): somewhat potentiated

Compound: CCCCCCCCCCCCC/C=C/[C@@H](O)[C@@H](N)COP(=O)(O)O [S-1-P, sphingosine-1-phosphate]
ability to form channels [1]: destabilized membranes

Compound: FL Bcl-xL: purified recombinant full-length anti-apoptotic protein Bcl-xL
level at which disassembly of preformed C16-ceramide channels was observed ([2]; C16-ceramide before protein (reversal), biphasic, FIG. 15A): ≤ 5 µg
level giving almost complete prevention of C16-ceramide channel formation ([2]; protein 10 min before 20 μM C16-ceramide 10 min, FIG. 15A): 1.5 µg
effect on conductance of a stable C16-ceramide channel [3]: dramatic decrease in the ceramide conductance to baseline
effect on C16-ceramide channels (prevention and reversal) in MOM of isolated yeast mitochondria ([4]; 20 μg protein, 20 μM C16-ceramide, 10 min each, FIG. 13D-F): prevention and reversal of the C16-ceramide channels was observed

Compound: Bcl-2: full-length human Bcl-2 expressed in yeast cells
sensitivity to C16-ceramide channel formation of mitochondria from yeast expressing the protein ([4]; full-length human Bcl-2 expressed in yeast vs empty vector control): resistant to C16-ceramide channel formation

pIC50 (mammalian MOM): 3.39
Compound: CC(C)NCC(O)COc1cccc2ccccc12 (centres unmarked) [propranolol]
effect on ceramide C2-induced permeabilization (yeast mitochondria): inhibited
effect on ceramide C16-induced permeabilization (yeast mitochondria): somewhat potentiated

Compound: CCCCCCCCCCCCC/C=C/[C@H](O)[C@@H](N)CO [L-threo sphingosine]
permeabilization of the MOM to adenylate kinase after removal of excess compound with BSA ([5]; 2.4 μg/mL for 5 min, then fatty acid depleted BSA, no ceramide added): no penneabilization of the MOM to adenylate kinase was observed
effect of preincubation on C16-ceramide permeabilization of the MOM and adenylate kinase release [5]: same biphasic effect
effect of preincubation on C16-ceramide permeabilization of the MOM and adenylate kinase release ([5]; listed as L-sphingosine): same results as D-sphingosine

Compound: CCCCCCCCCCCCC/C=C/[C@@H](O)[C@H](CO)NC(=O)CCCCCCCCCCCCCCC [C16-ceramide]
channel formation in the MOM of isolated wild-type yeast mitochondria ([4]; 10 min incubation, FIG. 13A): forms channels

Compound: dihydroceramide
permeabilization of the MOM to cytochrome c ([2]; inserts into mitochondrial membranes to the same degree as ceramide): lack of effect
effect on already formed ceramide channels [6]: does not induce channel disassembly
level that inhibits ceramide channel formation, relative to the ceramide level ([6]; found in liposomes and isolated mitochondria, FIG. 11 with C2-ceramide): 10%
